{
  "source": "patent US12383497B2",
  "about": "“Ready-to-use phenylephrine formulations and products” (INFORLIFE SA, priority 2023, dated 2025)",
  "assay": "Effect of autoclaving (terminal sterilization) on the product",
  "type": "physicochemical",
  "procedure": "Batches of the phenylephrine composition of the present disclosure formulated as in Table 1 were manufactured for the study of the effect of autoclaving on product behavior by autoclaving at a target temperature T=121° C.±1° C. and time at different FOs according to USP <1222>, which is incorporated fully herein by reference.\nThe table below show the Critical Quality Attributes of the drug product. The objective of this study was to evaluate the quality of the proposed manufacturing process to determine whether the manufacturing process will endure the desired final product study.\nThe table below show the results of the autoclaving study using several batches of the phenylephrine hydrochloride product formulation of the disclosure, containing 0.08 mg/ml of phenylephrine HCL.",
  "note": "Structures can show the parent of a compound that is named as a salt.",
  "data": [
    {"smiles": "CNC[C@H](O)c1cccc(O)c1", "note": "[phenylephrine, benzene methanol, 3-hydroxy-α [(methyl amino)methyl]-hydrochloride (R)]", "values": [
      {"measurement": "effect of terminal sterilization by autoclaving", "result": "caused degradation"}
    ]}
  ]
}
